Experimental findings from BindingDB's records for doi:10.1016/j.bmcl.2006.01.057 (Glaxosmithkline, 2006) are described below.

A word on the IC50: it is the concentration that gives 50% inhibition.

Sequence of Glycogen synthase kinase-3 beta (P49841 whole entry): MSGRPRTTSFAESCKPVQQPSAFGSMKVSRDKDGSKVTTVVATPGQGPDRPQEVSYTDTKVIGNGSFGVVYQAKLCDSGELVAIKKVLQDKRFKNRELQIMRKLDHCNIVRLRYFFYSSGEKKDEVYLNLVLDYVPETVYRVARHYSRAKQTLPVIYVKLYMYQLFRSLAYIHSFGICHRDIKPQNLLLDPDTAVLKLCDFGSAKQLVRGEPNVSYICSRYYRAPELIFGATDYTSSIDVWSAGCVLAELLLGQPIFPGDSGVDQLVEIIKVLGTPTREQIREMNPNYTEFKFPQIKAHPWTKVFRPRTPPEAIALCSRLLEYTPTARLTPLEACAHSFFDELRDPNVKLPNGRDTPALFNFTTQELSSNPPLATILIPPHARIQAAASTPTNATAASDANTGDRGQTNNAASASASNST

This experiment addresses Glycogen synthase kinase-3 beta (Homo sapiens, UniProt P49841). Nature of the experiment: Kinase Inhibition SPA Assay. The following applies: pH 7.2; 22 °C. The protocol: The biochemical activity of compounds was determined by incubation with specific enzyme and substrate in the presence 2.5 uM ATP/ [gamma-33P] ATP. After incubation, the reaction was stopped and the phosphorylated substrate was separated from nonincorporated radioactive ATP using Streptavidin-coated SPA beads (Amersham Pharmacia), counted using TopCount (Packard) to measure substrate-incorporated phosphate.
Turning to `COc1cccc(-c2c[nH]c3c(N=NCc4ccncc4)ncnc23)c1` [4-[(1E)-{2-[7-(3-methoxyphenyl)-5H-pyrrolo[3,2-d]pyrimidin-4-yl]hydrazin-1-ylidene}methyl]pyridine], half-maximal inhibition (IC50) was put at 5.01 nM.
Regarding `COc1cccc(-c2n[nH]c3c(N=NCc4ccncc4)ncnc23)c1` [4-[(1E)-{2-[3-(3-methoxyphenyl)-1H-pyrazolo[4,3-d]pyrimidin-7-yl]hydrazin-1-ylidene}methyl]pyridine], the concentration for half-maximal inhibition (IC50) came out at 5.01 nM.
In turn, `COc1cccc(-c2cn(C)c3c(N=NCc4ccncc4)ncnc23)c1` [4-[(1E)-{2-[7-(3-methoxyphenyl)-5-methyl-5H-pyrrolo[3,2-d]pyrimidin-4-yl]hydrazin-1-ylidene}methyl]pyridine] showed a half-maximal inhibitory concentration (IC50) of 501 nM.
`COc1cccc(-n2ncc3c(N=NCc4ccncc4)ncnc32)c1` [4-[(1E)-{2-[1-(3-methoxyphenyl)-1H-pyrazolo[3,4-d]pyrimidin-4-yl]hydrazin-1-ylidene}methyl]pyridine] registered an IC50 of 6.3 nM.
Under `COc1cccc(-n2ccc3c(N=NCc4ccncc4)ncnc32)c1` [4-[(1E)-{2-[7-(3-methoxyphenyl)-7H-pyrrolo[2,3-d]pyrimidin-4-yl]hydrazin-1-ylidene}methyl]pyridine] stands 31.6 nM.
With `COc1cccc(-n2cnc3c(N=NCc4ccncc4)ncnc32)c1` [9-(3-methoxyphenyl)-6-[(2E)-2-(pyridin-4-ylmethylidene)hydrazin-1-yl]-9H-purine], the IC50 was determined as 631 nM.
